# Measurements reported in patent US20260138961A1, “MODULATORS OF MITOCHONDRIAL DNA REPLICATION” (Pretzel Therapeutics, Inc., priority 2022, published 2026).
# Target: T1, POLγA:G848S (Homo sapiens, UniProt P54098, G848S)
# T1 sequence (P54098 1-1239 G848S): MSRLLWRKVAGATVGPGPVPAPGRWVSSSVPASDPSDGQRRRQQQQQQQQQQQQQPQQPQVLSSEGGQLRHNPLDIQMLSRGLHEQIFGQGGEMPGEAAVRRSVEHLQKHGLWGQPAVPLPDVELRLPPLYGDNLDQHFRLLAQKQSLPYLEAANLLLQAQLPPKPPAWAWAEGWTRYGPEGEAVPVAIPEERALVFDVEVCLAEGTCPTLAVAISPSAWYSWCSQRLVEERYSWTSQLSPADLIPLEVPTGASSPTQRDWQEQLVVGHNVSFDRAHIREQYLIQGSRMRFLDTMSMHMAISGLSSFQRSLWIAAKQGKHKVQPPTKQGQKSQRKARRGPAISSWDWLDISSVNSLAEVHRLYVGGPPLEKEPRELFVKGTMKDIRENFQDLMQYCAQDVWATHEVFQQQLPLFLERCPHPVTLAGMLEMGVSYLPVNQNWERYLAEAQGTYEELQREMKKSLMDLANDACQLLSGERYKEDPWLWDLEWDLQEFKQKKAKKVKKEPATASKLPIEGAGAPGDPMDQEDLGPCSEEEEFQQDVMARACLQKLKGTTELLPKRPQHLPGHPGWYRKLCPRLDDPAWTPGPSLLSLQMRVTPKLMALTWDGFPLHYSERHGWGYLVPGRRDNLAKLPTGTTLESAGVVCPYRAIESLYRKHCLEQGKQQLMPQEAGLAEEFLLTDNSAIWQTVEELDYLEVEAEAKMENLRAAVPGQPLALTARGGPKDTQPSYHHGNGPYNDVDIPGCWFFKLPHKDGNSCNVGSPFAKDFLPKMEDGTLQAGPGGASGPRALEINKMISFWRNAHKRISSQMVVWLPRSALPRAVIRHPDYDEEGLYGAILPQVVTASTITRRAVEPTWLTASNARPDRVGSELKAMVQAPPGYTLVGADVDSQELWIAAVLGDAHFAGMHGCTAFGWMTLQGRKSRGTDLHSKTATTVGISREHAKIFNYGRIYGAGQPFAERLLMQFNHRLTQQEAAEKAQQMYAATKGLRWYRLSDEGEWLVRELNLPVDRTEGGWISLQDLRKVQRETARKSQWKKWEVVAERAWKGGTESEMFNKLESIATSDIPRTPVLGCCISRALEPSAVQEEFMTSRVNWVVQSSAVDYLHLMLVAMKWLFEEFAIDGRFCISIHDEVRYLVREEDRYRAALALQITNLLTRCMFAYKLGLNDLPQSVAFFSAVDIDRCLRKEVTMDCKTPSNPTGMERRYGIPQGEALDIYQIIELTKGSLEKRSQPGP
# T1 sequence (Q9UHN1 1-485 partner): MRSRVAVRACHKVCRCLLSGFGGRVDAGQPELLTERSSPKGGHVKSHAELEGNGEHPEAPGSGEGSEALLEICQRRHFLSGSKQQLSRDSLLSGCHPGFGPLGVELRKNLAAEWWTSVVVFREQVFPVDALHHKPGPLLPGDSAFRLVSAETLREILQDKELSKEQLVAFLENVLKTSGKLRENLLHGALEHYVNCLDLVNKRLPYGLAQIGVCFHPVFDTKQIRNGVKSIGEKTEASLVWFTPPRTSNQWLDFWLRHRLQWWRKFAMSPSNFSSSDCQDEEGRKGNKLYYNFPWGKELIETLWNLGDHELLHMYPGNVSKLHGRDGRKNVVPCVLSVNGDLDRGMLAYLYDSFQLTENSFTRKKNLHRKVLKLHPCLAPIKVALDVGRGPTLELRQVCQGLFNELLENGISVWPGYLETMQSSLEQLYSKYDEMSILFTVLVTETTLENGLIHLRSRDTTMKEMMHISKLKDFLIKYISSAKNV
# Assay: DNA polymerization assay, POLγA:G848S mutant
# Assay type: biochemical
# Conditions: stimulation of polymerase activity, primed M13mp18 ssDNA, 37° C. 2 hours; read-out: G848S AC50
# Description: DNA Polymerization Assay to Monitor Effects on Human Wildtype POLγ and Four Disease-Causing Mutant Variants of Human POLγ.
# The ability of small molecules to stimulate the polymerase activity of POLγ was analyzed in a quantitative fluorescence SYBR Green I assay with fluorescence intensity (FI) readout.
# In the presence of dNTPs, wild type human POLγ and mutant derivatives thereof were incubated with single-stranded, circular M13mp18 ssDNA hybridized to a short DNA oligonucleotide that functions as a primer for initiation of DNA synthesis. POLγ and mutant derivatives thereof will extend the primer and use the M13mp18 molecule as a template to synthesize long stretches of double-stranded DNA. SYBR Green I, which is a double-stranded DNA-binding dye, was used to quantify formation of double-stranded DNA in the reaction. When bound to double-stranded DNA, SYBR Green I fluorescence increases by up to 100-fold.
# The assay was performed in the 384-well plate format. Upon addition of compounds, changes in double-stranded DNA synthesis activity can be monitored by following effects on fluorescent intensity.
# The reactions also contained the accessory POLγB subunit, and the human mitochondrial single-stranded DNA binding protein (mtSSB).
# The DNA template mixture used in the assay contained 0.5 nM primed M13 mp18 ssDNA, 400 nM mtSSB, 0.1 mM Tris-HCl (pH 8.0), 0.1 mM dNTP, 10 mM MgCl2, 0.1 mg/mL BSA, 1 mM TCEP solution, and 0.02% Triton X-100. The DNA template mixture for the wild type protein contained either 100 μM dNTP, 1 μM dNTP, or 0.1 μM dNTP, designated in Table 2 as 100 μM, 1 μM, and 0.1 μM, respectfully.
# Microplates with compounds (0.1 μL in each well) to be tested in the assay were prepared from 10 mM compound stocks in 100% DMSO, and equal amounts of DMSO without any compound were added to positive and negative control wells.
# The protein mixture was dispensed (5 μL into each well) into compound plates and incubated at 37° C. for 15 minutes. After incubation, 5 μL of the DNA template mixture was dispensed into each well. The plates were then incubated at 37° C. for 2 hours.
# During incubation, a combined stop buffer and detection reagent solution was prepared. The buffer contained 25 mM EDTA (pH 8.0), 0.02% Triton X-100, and SYBR Green I [Invitrogen] diluted 10,000× (for fluorescent readout). EDTA will stop the enzymatic reaction by chelating magnesium ions.
row,SMILES,AC50 [µM]
1,"Cc1cc(S(=O)(=O)N[C@@H]2CCCN(C(=O)[C@@H]3CCCN3C)C2)c(C)cc1Cl [Example 104, 4-chloro-2,5-dimethyl-N-((R)-1-(methyl-L-prolyl)piperidin-3-yl)benzenesulfonamide]",47
2,"Cc1cc(S(=O)(=O)Nc2cccc(C(=O)N3CCCC4(CC4)C3)c2)c(C)cc1Cl [Example 105, N-(3-(5-azaspiro[2.5]octane-5-carbonyl)phenyl)-4-chloro-2,5-dimethylbenzenesulfonamide]",9
3,"Cc1cc(S(=O)(=O)Nc2cccc(C(=O)N3CCCOC(C)(C)C3)c2)c(C)cc1Cl [Example 106, 4-chloro-N-(3-(2,2-dimethyl-1,4-oxazepane-4-carbonyl)phenyl)-2,5-dimethylbenzenesulfonamide]",> 100
4,"Cc1cc(S(=O)(=O)Nc2cccc(C(=O)N3C[C@H](C)[C@@H](N)C3)c2)c(C)cc1Cl [Example 108, N-(3-((3R,4S)-3-amino-4-methylpyrrolidine-1-carbonyl)phenyl)-4-chloro-2,5-dimethylbenzenesulfonamide]",> 100
5,"Cc1cc(S(=O)(=O)Nc2cccc(C(=O)N(CC(N)=O)C3CCCC3)c2)c(C)cc1Cl [Example 113, N-(2-amino-2-oxoethyl)-3-((4-chloro-2,5-dimethylphenyl)sulfonamido)-N-cyclopentylbenzamide]",11
6,"Cc1cc(S(=O)(=O)Nc2cccc(C(=O)N3C[C@@H](F)C[C@H](F)C3)c2)c(C)cc1Cl [Example 115, 4-chloro-N-(3-((3S,5S)-3,5-difluoropiperidine-1-carbonyl)phenyl)-2,5-dimethylbenzenesulfonamide]",> 100
7,"Cc1cc(Cl)ccc1S(=O)(=O)Nc1cccc(C(=O)N2CCC[C@H]2C)c1 [Example 116, (R)-4-chloro-2-methyl-N-(3-(2-methylpyrrolidine-1-carbonyl)phenyl)benzenesulfonamide]",9
8,"Cc1cc(S(=O)(=O)Nc2cccc(C(=O)N3CCC[C@H]3C)c2)ccc1Cl [Example 117, (R)-4-chloro-3-methyl-N-(3-(2-methylpyrrolidine-1-carbonyl)phenyl)benzenesulfonamide]",> 100
9,"C[C@@H]1CCCN1C(=O)c1cccc(NS(=O)(=O)c2ccc(C(F)(F)F)cc2)c1 [Example 118, (R)-N-(3-(2-methylpyrrolidine-1-carbonyl)phenyl)-4-(trifluoromethyl)benzenesulfonamide]",> 100
10,"O=S(=O)(Nc1csc(-c2ccccc2)n1)c1ccc(Cl)cc1 [Example 120, 4-chloro-N-(2-phenylthiazol-4-yl)benzenesulfonamide]",> 100
11,"O=S(=O)(Nc1csc(-c2ccccc2)n1)c1cccnc1 [Example 121, N-(2-phenylthiazol-4-yl)pyridine-3-sulfonamide]",> 100
12,"O=S(=O)(Nc1csc(-c2ccccc2)n1)c1ccc(F)c(F)c1 [Example 122, 3,4-difluoro-N-(2-phenylthiazol-4-yl)benzenesulfonamide]",> 100
13,"Cc1ccc(S(=O)(=O)Nc2csc(-c3ccccc3)n2)c(C)c1 [Example 123, 2,4-dimethyl-N-(2-phenylthiazol-4-yl)benzenesulfonamide]",2
14,"Cc1cc(F)ccc1S(=O)(=O)Nc1csc(-c2ccccc2)n1 [Example 124, 4-fluoro-2-methyl-N-(2-phenylthiazol-4-yl)benzenesulfonamide]",2
15,"O=S(=O)(Nc1csc(-c2ccccc2)n1)c1ccccc1Cl [Example 125, 2-chloro-N-(2-phenylthiazol-4-yl)benzenesulfonamide]",7

# Second part, the molecule after the results:
row,AC50 [µM],SMILES
1,0.4,"Cc1cnc(-c2ccc(Cl)c(NS(=O)(=O)c3cc(C)c(Cl)cc3C)c2)s1 [Example 102, 4-chloro-N-(2-chloro-5-(5-methylthiazol-2-yl)phenyl)-2,5-dimethylbenzenesulfonamide]"
2,9,"Cc1cnc(-c2cc(NS(=O)(=O)c3cc(C)c(Cl)cc3C)ccc2C)s1 [Example 103, 4-chloro-2,5-dimethyl-N-(4-methyl-3-(5-methylthiazol-2-yl)phenyl)benzenesulfonamide]"
3,7,"Cc1cc(S(=O)(=O)Nc2cccc(C(=O)N3CCc4cn[nH]c4C3)c2)c(C)cc1Cl [Example 107, 4-chloro-2,5-dimethyl-N-(3-(4,5,6,7-tetrahydro-1H-pyrazolo[3,4-c]pyridine-6-carbonyl)phenyl)benzenesulfonamide]"
4,> 100,"Cc1cc(S(=O)(=O)Nc2cccc(C(=O)N(C)c3ccccn3)c2)c(C)cc1Cl [Example 109, 3-((4-chloro-2,5-dimethylphenyl)sulfonamido)-N-methyl-N-(pyridin-2-yl)benzamide]"
5,> 100,"Cc1cc(NS(=O)(=O)c2cc(C)c(Cl)cc2C)cc(-c2ncc(C)s2)c1 [Example 110, 4-chloro-2,5-dimethyl-N-(3-methyl-5-(5-methylthiazol-2-yl)phenyl)benzenesulfonamide]"
6,> 100,"Cc1cnc(-c2cc(NS(=O)(=O)c3cc(C)c(Cl)cc3C)ccc2Cl)s1 [Example 111, 4-chloro-N-(4-chloro-3-(5-methylthiazol-2-yl)phenyl)-2,5-dimethylbenzenesulfonamide]"
7,40,"Cc1cc(S(=O)(=O)Nc2cccc(C(=O)N(C(C)C)C3COC3)c2)c(C)cc1Cl [Example 112, 3-((4-chloro-2,5-dimethylphenyl)sulfonamido)-N-isopropyl-N-(oxetan-3-yl)benzamide]"
8,50,"Cc1cc(S(=O)(=O)Nc2cccc(C(=O)N3CCc4ncnc(C)c4C3)c2)c(C)cc1Cl [Example 114, 4-chloro-2,5-dimethyl-N-(3-(4-methyl-5,6,7,8-tetrahydropyrido [4,3-d]pyrimidine-6-carbonyl)phenyl)benzenesulfonamide]"
9,2,"Cc1cc(S(=O)(=O)Nc2cccc(C(=O)N3CCCC3)c2)c(C)cc1Cl [Example 119, 4-chloro-2,5-dimethyl-N-(3-(pyrrolidine-1-carbonyl)phenyl) benzenesulfonamide]"
